Source: the supplement of paper PMC10307832

Tests used:
Test in all cases: relative viability (nuclei count vs DMSO), 5 days (fraction); higher = more cells survive
Cediranib + Navitoclax = compound: COc1cc2c(Oc3ccc4[nH]c(C)cc4c3F)ncnc2cc1OCCCN1CCCC1 [Cediranib] + CC1(C)CCC(c2ccc(Cl)cc2)=C(CN2CCN(c3ccc(C(=O)NS(=O)(=O)c4ccc(N[C@H](CCN5CCOCC5)CSc5ccccc5)c(S(=O)(=O)C(F)(F)F)c4)cc3)CC2)C1 [Navitoclax] (partner 0.5 µM)
Procedure, shortened: (§1)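 For relative viability, nuclei counts in treated wells were divided by those in vehicle wells. Lung cancer cell lines had been pin-tool dosed in 1536-well plates the day after seeding and cultured for 5 days, then fixed and stained in one step (final 0.05% Triton X-100, 1% formaldehyde, 1 ug/ml Hoechst) and imaged at 4×. Doses were one drug alone or a fixed anchor-drug dose plus five library-drug doses (not always all listed) in √10 steps, and values are duplicate-plate medians.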

Decitabine + Navitoclax = compound: Nc1ncn([C@H]2C[C@H](O)[C@@H](CO)O2)c(=O)n1 [Decitabine] + CC1(C)CCC(c2ccc(Cl)cc2)=C(CN2CCN(c3ccc(C(=O)NS(=O)(=O)c4ccc(N[C@H](CCN5CCOCC5)CSc5ccccc5)c(S(=O)(=O)C(F)(F)F)c4)cc3)CC2)C1 [Navitoclax] (partner 0.5 µM)
Procedure, shortened: as §1

Decitabine + Linsitinib = compound: Nc1ncn([C@H]2C[C@H](O)[C@@H](CO)O2)c(=O)n1 [Decitabine] + C[C@]1(O)C[C@@H](c2nc(-c3ccc4ccc(-c5ccccc5)nc4c3)c3c(N)nccn32)C1 [Linsitinib] (partner 1 µM)
Procedure, shortened: as §1

Decitabine + Phenformin = compound: Nc1ncn([C@H]2C[C@H](O)[C@@H](CO)O2)c(=O)n1 [Decitabine] + N=C(N)NC(=N)NCCc1ccccc1 [Phenformin] (partner 250 µM)
Procedure, shortened: as §1

| Cell Line | relative viability (Cediranib + Navitoclax; first compound 0.04 µM) | relative viability (Cediranib + Navitoclax; first compound 0.1265 µM) | relative viability (Cediranib + Navitoclax; first compound 0.4 µM) | relative viability (Cediranib + Navitoclax; first compound 1.265 µM) | relative viability (Cediranib + Navitoclax; first compound 4 µM) | relative viability (Decitabine + Navitoclax; first compound 0.04 µM) | relative viability (Decitabine + Navitoclax; first compound 0.1265 µM) | relative viability (Decitabine + Navitoclax; first compound 0.4 µM) | relative viability (Decitabine + Navitoclax; first compound 1.265 µM) | relative viability (Decitabine + Navitoclax; first compound 4 µM) | relative viability (Decitabine + Linsitinib; first compound 0.04 µM) | relative viability (Decitabine + Linsitinib; first compound 0.1265 µM) | relative viability (Decitabine + Linsitinib; first compound 0.4 µM) | relative viability (Decitabine + Linsitinib; first compound 1.265 µM) | relative viability (Decitabine + Linsitinib; first compound 4 µM) | relative viability (Decitabine + Phenformin; first compound 0.04 µM) | relative viability (Decitabine + Phenformin; first compound 0.1265 µM) | relative viability (Decitabine + Phenformin; first compound 0.4 µM) | relative viability (Decitabine + Phenformin; first compound 1.265 µM) | relative viability (Decitabine + Phenformin; first compound 4 µM) |
| --- | --- | --- | --- | --- | --- | --- | --- | --- | --- | --- | --- | --- | --- | --- | --- | --- | --- | --- | --- | --- |
| NCI-H1792 | 0.446 | 0.442 | 0.588 | 0.668 | 0.393 | 0.6 | 0.672 | 0.625 | 0.454 | 0.304 | 0.643 | 0.568 | 0.531 | 0.378 | 0.333 | 0.445 | 0.275 | 0.707 | 0.262 | 0.175 |
| NCI-H1355 | 0.94 | 0.954 | 0.898 | 0.936 | 1.04 | 0.695 | 0.583 | 0.471 | 0.248 | 0.913 | 0.663 | 0.622 | 0.52 | 0.348 | 0.827 | 0.432 | 0.385 | 0.338 | 0.277 | 0.323 |
| SK-LU-1 | 1.1 | 0.999 | 0.859 | 0.654 | 1.04 | 0.262 | 0.385 | 0.23 | 0.335 | 0.282 | 0.76 | 0.744 | 0.487 | 0.545 | 0.45 | 0.42 | 0.448 | 0.278 | 0.344 | 0.297 |
| NCI-H2228 | 0.791 | 0.968 | 0.883 | 1.22 | 1.1 | 0.667 | 0.525 | 0.264 | 0.337 | 0.21 | 0.377 | 0.589 | 0.613 | 0.356 | 0.291 | 0.271 | 0.252 | 0.103 | 0.154 | 0.192 |
| NCI-H2347 | 0.886 | 0.754 | 0.748 | 0.831 | 0.891 | 0.792 | 0.543 | 0.425 | 0.385 | 0.348 | 0.936 | 0.935 | 0.725 | 0.639 | 0.625 | 0.472 | 0.384 | 0.413 | 0.467 | 0.326 |
| A-427 | 0.903 | – | 0.909 | 0.875 | 0.94 | 0.674 | 0.578 | 0.365 | 0.255 | 0.191 | 0.807 | 0.674 | 0.446 | 0.368 | 0.275 | 0.239 | 0.265 | 0.19 | 0.18 | 0.164 |
| HCC-366 | 1.07 | 0.983 | 1.11 | 1.07 | 1.07 | 0.92 | 0.906 | 0.382 | 0.232 | 0.133 | 0.535 | 0.743 | 0.339 | 0.14 | 0.111 | 0.505 | 0.528 | 0.392 | 0.244 | 0.155 |
| HCC-78 | 0.934 | 0.824 | 0.764 | 0.762 | 0.758 | 0.71 | 0.561 | 0.458 | 0.329 | 0.284 | 0.538 | 0.545 | 0.407 | 0.371 | 0.319 | 0.626 | 0.634 | 0.593 | 0.505 | 0.477 |
| PC-14 | 0.989 | 1.03 | 1.02 | 0.905 | 1.24 | 0.51 | 0.556 | 0.231 | 0.162 | 0.166 | – | 0.784 | 0.268 | 0.283 | 0.23 | 0.114 | 0.339 | 0.128 | 0.126 | 0.163 |
| NCI-H2087 | 1.07 | 0.914 | 1.01 | 0.984 | 1.07 | 0.635 | 0.562 | 0.458 | 0.369 | 0.357 | 0.659 | 0.678 | 0.591 | 0.41 | 0.384 | 0.411 | 0.359 | 0.291 | 0.242 | 0.25 |
| HOP-62 | 1.08 | 0.892 | 0.867 | 1.1 | 1.14 | 0.572 | 0.388 | 0.15 | 0.172 | 0.14 | 0.617 | 0.307 | 0.159 | 0.138 | 1.05 | 0.464 | 0.374 | 0.175 | 0.168 | 0.148 |
| EKVX | 1.01 | 0.74 | 0.912 | 0.903 | 1.02 | 0.75 | 0.809 | 0.561 | 0.365 | 0.347 | 0.792 | 0.854 | 0.657 | 0.386 | 0.306 | 0.223 | 0.22 | 0.227 | 0.177 | 0.202 |
| EMC-BAC-2 | 1.3 | 1.16 | 1.12 | 1.17 | 1.06 | 1.08 | 1.12 | 0.773 | 0.705 | 0.605 | 0.797 | 0.81 | 0.652 | 0.612 | 0.583 | 0.514 | 0.541 | 0.462 | 0.414 | 0.406 |
| HARA | 1.16 | 1.03 | 1.15 | 1.14 | 1.18 | 0.9 | 0.66 | 0.568 | 0.512 | 0.399 | 0.896 | 0.776 | 0.69 | 0.382 | 0.312 | 0.307 | 0.36 | 0.236 | 0.148 | 0.125 |
| LU99A | 0.787 | – | 0.813 | 0.698 | 0.969 | 0.745 | 0.711 | 0.771 | 0.53 | 0.502 | 0.45 | 0.584 | 0.603 | 0.442 | 0.374 | 0.825 | 1 | 0.757 | 0.648 | 0.627 |
| NCI-H1944 | 1.08 | 1.11 | 0.95 | 0.981 | 1.01 | 0.689 | 0.669 | 0.564 | 0.423 | 0.365 | 1.06 | 0.962 | 0.934 | 0.667 | 0.642 | 0.191 | 0.21 | 0.227 | 0.166 | 0.199 |
